These results are taken from patent US20060178374A1, “Aminoheteroaryl compounds as protein kinase inhibitors” (AGOURON PHARMACEUTICALS, INC., priority 2004, published 2006).

The test has as its target HGFR (c-Met) (Homo sapiens, UniProt P08581). The test can be described thus: HGFR Continuous-Coupled Spectrophotometric Assay. It is filed as biochemical. Conditions: for Ki: HGFR enzyme 50 nM, Met-2 peptide substrate, 37° C.; for inhibition at 1 µM: compound at 1 μM. Here is the method: The general procedure is as follows: compounds and kinase assay reagents are introduced into test wells. The assay is initiated by addition of the kinase enzyme. Enzyme inhibitors reduce the measured activity of the enzyme.
In the continuous-coupled spectrophotometric assay the time-dependent production of ADP by the kinase is determined by analysis of the rate of consumption of NADH by measurement of the decrease in absorbance at 340 nm. As the PK produces ADP it is re-converted to ATP by reaction with phosphoenol pyruvate and pyruvate kinase. Pyruvate is also produced in this reaction. Pyruvate is subsequently converted to lactate by reaction with lactate dehydrogenase, which simultaneously converts NADH to NAD.
HGFR Continuous-Coupled Spectrophotometric Assay
This assay analyzes the tyrosine kinase activity of HGFR on the Met-2 substrate peptide, a peptide derived from the activation loop of the HGFR.
• 1. […] Dissolve up in 200 mM HEPES, pH 7.5 at 10 mM stock. • 3. 1 M PEP (phospho-enol-pyruvate) in 200 mM HEPES, pH 7.5 • 4. 100 mM NADH (B-Nicotinamide Adenine Dinucleotide, Reduced Form) in 200 mM HEPES, pH 7.5 • 5. 4 M MgCl2 (Magnesium Chloride) in ddH2O 6. 1 M DTT (Dithiothreitol) in 200 mM HEPES, pH 7.5 • 7. 15 Units/mL LDH (Lactic Dehydrogenase) • 8. 15 Units/mL PK (Pyruvate Kinase) • 9. 5M NaCl dissolved in ddH2O • 10. Tween-20 (Protein Grade) 10% Solution • 11. 1 M HEPES buffer: (N-[2-Hydroxethyl]piperazine-N-[2-ethanesulfonic acid]) Sodium Salt. Dissolve in ddH2O, adjust pH to 7.5, bring volume to 1 L. Filter at 0.1 μm. • 12. […] 100% DMSO (SIGMA) • 14. […] Beckman DU-650 w/ micro cell holders • 18. Beckman 4-position micro cell cuvette Procedure:
Prep Dilution Buffer (DB) for Enzyme (For 30 mL prep) • 1. DB final concentration is 2 mM DTT, 25 mM NaCl2, 5 mM MgCl2, 0.01% Tween-20, and 50 mM HEPES buffer, pH 7.5. • 2. Make up 50 mM HEPES by adding 1.5 mL 1 M HEPES into 28.1 mL of ddH2O. Add rest of the reagents. Into 50 mL conical vial, add 60 μL of 1M DTT, 150 μL 5M NaCl2, 150 μL 1M MgCl2, and 30 μL of 10% Tween-20 to give total volume of 30 mL. • 3. Vortex for 5-10 seconds. • 4. Aliquot out DB at 1 mL/tube and label tubes as “DB HGFR” • 5. Note: This can be prepared and stored ahead of time. • 6. Freeze un-used aliquots in microcentrifuge tubes at −20° C. freezer.
Prep Compounds • 1. For compound dilution plate, add 4 μL of 10 mM stock into column 1 of plate, and bring volume to 100 μL with 100% DMSO. • 2. Set up the Precision 2000 dilution method. A final concentration of 200 μM compound in 50% DMSO, 100 mM HEPES (1:2 serial dilution).
Prep Coupled Enzymatic Buffer:
1. Final concentration in assay:
• 2. For a 10 mL reaction buffer add 10 μL of 1M PEP, 33 μL of 100 mM NADH, 50 μL of 4M MgCl2, 20 μL of 1M DTT, 6 μL of 500 mM ATP, and […] of 10 mM Met-2 peptide into 100 mM HEPES buffer pH 7.5 and vortex/mix. • 3. Add coupling enzymes, LDH and PK, into reaction mix. Mix by gentle inversion.
1. Spectrophotometer settings:
• 2. Add 85 μL of CE reaction mix into each well of assay plate. • 3. Add 5 μL of diluted compound into a well of the assay plate. • 4. Add 5 μL of 50% DMSO for negative control into last column of assay plate. • 5. Mix with multi-channel pipettor or orbital shaker. • 6. Pre-incubate for 10 minutes at 37° C. • 7. Add 10 μL of 500 nM HGFR to each well of assay plate; the final HGFR concentration is 50 nM in a total final volume of 100 μL. • 8. Measure activity for 10 minutes at λ=340 nm and 37° C.
Ki data were obtained using the HGFR Continuous-Coupled Spectrophotometric Assay, and IC50 data were obtained using the Cellular HGFR Autophosphorylation Assay, both of which are described above.

Usually Ki stands for a dissociation constant, usually derived from enzyme kinetics or from competition with a known ligand. A low value points to tighter binding. The inhibition is the percentage by which the read-out fell short of the control.

Each structure is given as a SMILES string.

Chain of HGFR (c-Met) (P08581 974-1390): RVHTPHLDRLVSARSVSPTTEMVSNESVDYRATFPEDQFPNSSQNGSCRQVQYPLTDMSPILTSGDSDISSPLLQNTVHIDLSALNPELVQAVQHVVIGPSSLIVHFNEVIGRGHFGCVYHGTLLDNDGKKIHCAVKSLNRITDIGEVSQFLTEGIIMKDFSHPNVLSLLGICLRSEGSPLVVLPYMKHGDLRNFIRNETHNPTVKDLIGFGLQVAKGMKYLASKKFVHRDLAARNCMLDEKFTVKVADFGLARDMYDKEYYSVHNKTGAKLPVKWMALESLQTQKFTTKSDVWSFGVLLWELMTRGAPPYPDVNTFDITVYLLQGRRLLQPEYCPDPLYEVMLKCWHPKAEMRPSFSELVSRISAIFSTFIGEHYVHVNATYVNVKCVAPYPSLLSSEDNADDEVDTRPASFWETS

In the case of `CCN(CCO)C(=O)c1ccc(-c2cnc(N)c(OC(C)c3c(Cl)ccc(F)c3Cl)c2)cc1` (stereo not drawn) [Example 1, 4-{6-Amino-5-[1-(2,6-dichloro-3-fluorophenyl)ethoxy]-pyridin-3-yl}N-ethyl-N-(2-hydroxyethyl)benzamide], the Ki was determined as 39 nM and the inhibition at 1 µM is 94%.

Turning to `CC(Oc1cc(-c2ccc(C(=O)N(C)CCC#N)cc2)cnc1N)c1c(Cl)ccc(F)c1Cl` (stereo not drawn) [Example 2, 4-{6-Amino-5-[1-(2,6-dichloro-3-fluorophenyl)ethoxy]pyridin-3-yl}-N-(2-cyanoethyl)-N-methylbenzamide], the Ki stood at 33 nM and testing at 1 µM gave an inhibition of 95%.

Take `CC(C)NC(=O)CN1CCN(C(=O)c2ccc(-c3cnc(N)c(OC(C)c4c(Cl)ccc(F)c4Cl)c3)cc2)CC1` (stereo not drawn) [Example 3, 2-[4-(4-{6-Amino-5-[1-(2,6-dichloro-3-fluorophenyl)ethoxy]pyridin-3-yl}benzoyl)piperazin-1-yl]-N-isopropylacetamide]: the Ki was found to be 26 nM.

Turning to `COCCN1CCN(C(=O)c2ccc(-c3cnc(N)c(OC(C)c4c(Cl)ccc(F)c4Cl)c3)cc2)CC1` (stereo not drawn) [Example 4], the affinity corresponds to a Ki of 44 nM and the inhibition at 1 µM amounted to 95%.

As to `CC(Oc1cc(-c2ccc(C(=O)N3CCS(=O)(=O)CC3)cc2)cnc1N)c1c(Cl)ccc(F)c1Cl` (stereo not drawn) [Example 5, 3-[1-(2,6-Dichloro-3-fluorophenyl)ethoxy]-5-{4-[(1,1-dioxidothiomorpholin-4-yl)carbonyl]phenyl)pyridine-2-amine], the Ki was 31 nM and the inhibition at 1 µM was 96%.

`CC(Oc1cc(-c2ccc(C(=O)N3CCC(N(C)C)CC3)cc2)cnc1N)c1c(Cl)ccc(F)c1Cl` (stereo not drawn) [Example 6] had an inhibitory constant (Ki) of 24 nM and an inhibition at 1 µM of 95%.

As for `CC(Oc1cc(-c2ccc(C(=O)N3CCN(C4CCN(C)CC4)CC3)cc2)cnc1N)c1c(Cl)ccc(F)c1Cl` (stereo not drawn) [Example 7, 3-[1-(2,6-Dichloro-3-fluorophenyl)ethoxy]-5-(4-{[4-(1-methylpiperidin-4-yl)piperazin-1-yl]carbonyl)phenyl)pyridin-2-amine], affinity was put at a Ki of 26 nM and testing at 1 µM gave an inhibition of 96%.

Consider `CC(Oc1cc(-c2ccc(C(=O)N3CC[N@]4C[C@H]3C4)cc2)cnc1N)c1c(Cl)ccc(F)c1Cl` (stereo partly drawn) [Example 8, 5-[4-(1,4-Diazabicyclo[3.1.1]hept-4-ylcarbonyl)phenyl]-3-[1-(2,6-dichloro-3-fluorophenyl)ethoxy]pyridin-2-amine], for which the Ki was determined as 20 nM and testing at 1 µM gave an inhibition of 94%.

Turning to `CNCCNC(=O)c1ccc(-c2cnc(N)c(OC(C)c3c(Cl)ccc(F)c3Cl)c2)cc1` (stereo not drawn) [Example 9, 4-{6-Amino-5-[1-(2,6-dichloro-3-fluorophenyl)ethoxy]pyridin-3-yl}-N-[2-(methylamino)ethyl)benzamide], the affinity corresponds to a Ki of 37 nM and at 1 µM the inhibition was 91%.

Compound `CNCCCNC(=O)c1ccc(-c2cnc(N)c(OC(C)c3c(Cl)ccc(F)c3Cl)c2)cc1` (stereo not drawn) [Example 10, 4-{6-Amino-5-[1-(2,6-dichloro-3-fluorophenyl)ethoxy]pyridin-3-yl}-N-[3-(methylamino)propyl)benzamide] returned a Ki of 37 nM and an inhibition at 1 µM of 89%.

For the compound `CC(Oc1cc(-c2ccc(C(=O)NCCCN)cc2)cnc1N)c1c(Cl)ccc(F)c1Cl` (stereo not drawn) [Example 11, 4-(6-Amino-5-[1-(2,6-dichloro-3-fluorophenyl)ethoxy]pyridin-3-yl}-N-(3-aminopropyl) benzamide], the Ki came to 45 nM and at 1 µM the inhibition was 86%.

Regarding `CC(Oc1cc(-c2ccc(C(=O)NC3CCNCC3)cc2)cnc1N)c1c(Cl)ccc(F)c1Cl` (stereo not drawn) [Example 12, 4-{6-Amino-5-[1-(2,6-dichloro-3-fluorophenyl)ethoxy]pyridin-3-yl}-N-piperidin-4-ylbenzamide], the Ki came to 41 nM and the inhibition at 1 µM was 86%.

`CC(Oc1cc(-c2ccc(C(=O)NCC3CCNCC3)cc2)cnc1N)c1c(Cl)ccc(F)c1Cl` (stereo not drawn) [Example 13, 4-{6-Amino-5-[1-(2,6-dichloro-3-fluorophenyl)ethoxy]pyridin-3-yl}-N-(piperidin-4-ylmethyl)benzamide] had a Ki of 48 nM and an inhibition at 1 µM of 87%.

Compound `CC(Oc1cc(-c2ccc(C(=O)NCC3CCNC3)cc2)cnc1N)c1c(Cl)ccc(F)c1Cl` (stereo not drawn) [Example 15, 4-{6-Amino-5-[1-(2,6-dichloro-3-fluorophenyl)ethoxy]pyridin-3-yl}-N-(pyrrolidin-3-ylmethyl)benzamide] returned a Ki of 71 nM and an inhibition at 1 µM of 85%.

Take `CC(Oc1cc(-c2ccc(C(=O)NC3CCCNC3)cc2)cnc1N)c1c(Cl)ccc(F)c1Cl` (stereo not drawn) [Example 16, 4-{6-Amino-5-[1-(2,6-dichloro-3-fluorophenyl)ethoxy]pyridin-3-yl}-N-piperidin-3-ylbenzamide]: the inhibition constant (Ki) came out at 44 nM and at 1 µM the inhibition was 91%.

Take `CC(Oc1cc(-c2ccc(C(=O)NCCN)cc2)cnc1N)c1c(Cl)ccc(F)c1Cl` (stereo not drawn) [Example 17, 4-{6-Amino-5-[1-(2,6-dichloro-3-fluorophenyl)ethoxy]pyridin-3-yl}N-(2-aminoethyl) benzamide]: the affinity corresponds to a Ki of 68 nM and testing at 1 µM gave an inhibition of 90%.

As for `CCNCCNC(=O)c1ccc(-c2cnc(N)c(OC(C)c3c(Cl)ccc(F)c3Cl)c2)cc1` (stereo not drawn) [Example 18, 4-{6-Amino-5-[1-(2,6-dichloro-3-fluorophenyl)ethoxy]pyridin-3-yl}-N-[2-(ethylamino)ethyl]benzamide], the Ki was found to be 36 nM and the inhibition at 1 µM worked out at 90%.

`CC(Oc1cc(-c2ccc(C(=O)N3CCC4(CCNCC4)C3)cc2)cnc1N)c1c(Cl)ccc(F)c1Cl` (stereo not drawn) [Example 19, 5-[4-(2,8-Diazaspiro[4.5]dec-2-ylcarbonyl)phenyl]-3-[1-(2,6-dichloro-3-fluorophenyl)ethoxy]pyridin-2-amine] displayed a Ki of 46 nM and an inhibition at 1 µM of 93%.

`CC(Oc1cc(-c2ccc(C(=O)N3CC4CNCC4C3)cc2)cnc1N)c1c(Cl)ccc(F)c1Cl` (stereo not drawn) [Example 20, 3-[1-(2,6-Dichloro-3-fluorophenyl)ethoxy]-5-[4-(hexahydropyrrolo[3,4-c]pyrrrol-2 (1H)-ylcarbonyl)phenyl]pyridin-2-amine]: the Ki worked out at 26 nM and 1 µM produced 93% inhibition.

`COc1cc(-c2cnc(N)c(OC(C)c3c(Cl)ccc(F)c3Cl)c2)ccc1C(=O)N1C[C@@H](C)N[C@@H](C)C1` (stereo partly drawn) [Example 23, 3-[1-(2,6-dichloro-3-fluorophenyl)ethoxy]-5-(4-{[(3R,5S)-3,5-dimethylpiperazin-1-yl]carbonyl}-3-methoxyphenyl)pyridin-2-amine] returned a Ki of 27.2 nM.

For the compound `COc1cc(-c2cnc(N)c(OC(C)c3c(Cl)ccc(F)c3Cl)c2)ccc1C(=O)N1CCCCC1` (stereo not drawn) [Example 24, 3-[1-(2,6-dichloro-3-fluorophenyl)ethoxy]-5-[3-methoxy-4-(piperidin-1-ylcarbonyl)phenyl]pyridin-2-amine], the Ki stood at 1030 nM.
